“Also recorded” adds a separate entry of the source. Counter-ions that a name gives are not always drawn.
How the values were obtained:
[1] = cited from earlier work
[2] = system: Tcf4+/− mice; test: Nesting (test of daily living); assay type: in vivo, mouse; details: chronic treatment of Tcf4+/− mice
Description: The Tcf4+1− mouse model has been developed to mimic PTHS and therefore assess potential treatments. The mice have deficits in hippocampus-dependent learning and memory, spatial working memory, sociability, stereotypy, hyperactivity and daily living paradigms. […] Mice were purchased from The Jackson Laboratory and maintained on a C57BL/6 background. They were raised on a 12:12 light:dark cycle with ad libitum access to food and water. Controls consisted of TCF4+1+. All mice used were heterozygous for the Tcf4 mutation because homozygous mutations result in embryonic/post-partum lethality. There were four treatment groups per compound in the study with 10 male mice used per treatment group (all at 14 weeks of age): Group 1: wild-type littermate mice treated with vehicle (WT+veh); Group 2: Tcf4+/−KO mice treated with vehicle (Tcf4+1−+veh), Group 3: WT+drug; and Group 4: Tcf4+1−+drug. The test was performed in individual cages. Normal bedding covered the floor to a depth of 0.5 cm. […] Mice were placed individually into the nesting cages 1 hr. before the dark phase, and the results were assessed the next morning. Nest building was scored on a 5 point scale. […] Data were analysed by two-way analysis of variance (ANOVA) followed by post-test comparisons where appropriate using Tukey's Multiple Comparison Test, Data are represented as the mean and standard error of the mean (SEM).

[3] = system: Tcf4+/− mice; test: Fear conditioning (test of learning and memory); assay type: in vivo, mouse; details: chronic treatment of Tcf4+/− mice
Description: The Tcf4+1− mouse model has been developed to mimic PTHS and therefore assess potential treatments. The mice have deficits in hippocampus-dependent learning and memory, spatial working memory, sociability, stereotypy, hyperactivity and daily living paradigms. […] Mice were purchased from The Jackson Laboratory and maintained on a C57BL/6 background. They were raised on a 12:12 light:dark cycle with ad libitum access to food and water. Controls consisted of TCF4+1+. All mice used were heterozygous for the Tcf4 mutation because homozygous mutations result in embryonic/post-partum lethality. There were four treatment groups per compound in the study with 10 male mice used per treatment group (all at 14 weeks of age): Group 1: wild-type littermate mice treated with vehicle (WT+veh); Group 2: Tcf4+/−KO mice treated with vehicle (Tcf4+1−+veh), Group 3: WT+drug; and Group 4: Tcf4+1−+drug. Tcf4+/− mice show reduced freezing in the context of clued fear conditioning test indicating hippocampus-dependent memory and learning deficiency. […] Data were analysed by two-way analysis of variance (ANOVA) followed by post-test comparisons where appropriate using Tukey's Multiple Comparison Test, Data are represented as the mean and standard error of the mean (SEM).

[4] = system: Tcf4+/− mice; test: Sociability/Partition test (assessment of social anxiety); assay type: in vivo, mouse; details: chronic treatment of Tcf4+/− mice
Description: The Tcf4+1- mouse model has been developed to mimic PTHS and therefore assess potential treatments. The mice have deficits in hippocampus-dependent learning and memory, spatial working memory, sociability, stereotypy, hyperactivity and daily living paradigms. […] Mice were purchased from The Jackson Laboratory and maintained on a C57BL/6 background. They were raised on a 12:12 light:dark cycle with ad libitum access to food and water. Controls consisted of TCF4+1+. All mice used were heterozygous for the Tcf4 mutation because homozygous mutations result in embryonic/post-partum lethality. There were four treatment groups per compound in the study with 10 male mice used per treatment group (all at 14 weeks of age): Group 1: wild-type littermate mice treated with vehicle (WT+veh); Group 2: Tcf4+/-KO mice treated with vehicle (Tcf4+1-+veh), Group 3: WT+drug; and Group 4: Tcf4+1-+drug. In the three-chambered sociability task, a subject mouse was evaluated for its exploration of a novel social stimulus (novel mouse). […] The time spent exploring the novel mice was scored as exploration ratio. Data were analysed by two-way analysis of variance (ANOVA) followed by post-test comparisons where appropriate using Tukey's Multiple Comparison Test, Data are represented as the mean and standard error of the mean (SEM).

[5] = system: Tcf4+/− mice; test: Test of Force (hind limb grip strength); assay type: in vivo, mouse; details: chronic treatment of Tcf4+/− mice
Description: The Tcf4+1− mouse model has been developed to mimic PTHS and therefore assess potential treatments. The mice have deficits in hippocampus-dependent learning and memory, spatial working memory, sociability, stereotypy, hyperactivity and daily living paradigms. […] Mice were purchased from The Jackson Laboratory and maintained on a C57BL/6 background. They were raised on a 12:12 light:dark cycle with ad libitum access to food and water. Controls consisted of TCF4+1+. All mice used were heterozygous for the Tcf4 mutation because homozygous mutations result in embryonic/post-partum lethality. There were four treatment groups per compound in the study with 10 male mice used per treatment group (all at 14 weeks of age): Group 1: wild-type littermate mice treated with vehicle (WT+veh); Group 2: Tcf4+/−KO mice treated with vehicle (Tcf4+1−+veh), Group 3: WT+drug; and Group 4: Tcf4+1−+drug. Tcf4+/− mice show a significant deficit in hindlimb strength (not forelimb) when compared with WT mice. Neuromuscular function of the hindlimbs was tested with a grip strength meter (San Diego Instruments). […] The force applied to the grid at the moment the grasp was released was recorded. Data were analysed by two-way analysis of variance (ANOVA) followed by post-test comparisons where appropriate using Tukey's Multiple Comparison Test, Data are represented as the mean and standard error of the mean (SEM).

[6] = system: Tcf4+/− mice; test: Open field (measure of hyperactivity); assay type: in vivo, mouse; details: chronic treatment of Tcf4+/− mice
Description: The Tcf4+1− mouse model has been developed to mimic PTHS and therefore assess potential treatments. The mice have deficits in hippocampus-dependent learning and memory, spatial working memory, sociability, stereotypy, hyperactivity and daily living paradigms. […] Mice were purchased from The Jackson Laboratory and maintained on a C57BL/6 background. They were raised on a 12:12 light:dark cycle with ad libitum access to food and water. Controls consisted of TCF4+1+. All mice used were heterozygous for the Tcf4 mutation because homozygous mutations result in embryonic/post-partum lethality. There were four treatment groups per compound in the study with 10 male mice used per treatment group (all at 14 weeks of age): Group 1: wild-type littermate mice treated with vehicle (WT+veh); Group 2: Tcf4+/−KO mice treated with vehicle (Tcf4+1−+veh), Group 3: WT+drug; and Group 4: Tcf4+1−+drug. The open-field apparatus was used to test hyperactivity. […] The number of squares entered by the whole body (locomotor activity) was counted. The movement of the mouse around the field was recorded with a video tracking device for 3 min (version NT4.0, Viewpoint). Data were analysed by two-way analysis of variance (ANOVA) followed by post-test comparisons where appropriate using Tukey's Multiple Comparison Test, Data are represented as the mean and standard error of the mean (SEM).

[7] = system: Tcf4+/− mice; test: Dose response experiments in behavioural tests (Study 2); assay type: in vivo, mouse
Protocol: Dose response experiments were conducted following the protocol described above. Amitriptyline rescued all the behavioral tests at 5 and 10 mg/kg.

[8] = system: Tcf4+/− mice; test: Self-grooming (assessment of stereotypy); assay type: in vivo, mouse; details: chronic treatment of Tcf4+/− mice
Description: The Tcf4+1− mouse model has been developed to mimic PTHS and therefore assess potential treatments. The mice have deficits in hippocampus-dependent learning and memory, spatial working memory, sociability, stereotypy, hyperactivity and daily living paradigms. […] Mice were purchased from The Jackson Laboratory and maintained on a C57BL/6 background. They were raised on a 12:12 light:dark cycle with ad libitum access to food and water. Controls consisted of TCF4+1+. All mice used were heterozygous for the Tcf4 mutation because homozygous mutations result in embryonic/post-partum lethality. There were four treatment groups per compound in the study with 10 male mice used per treatment group (all at 14 weeks of age): Group 1: wild-type littermate mice treated with vehicle (WT+veh); Group 2: Tcf4+/−KO mice treated with vehicle (Tcf4+1−+veh), Group 3: WT+drug; and Group 4: Tcf4+1−+drug. […] Usually in a sitting position, the mouse will lick its fur, groom with the forepaws, or scratch with any limb. Often the mouse will mix all of these grooming behaviors. […] Data were analysed by two-way analysis of variance (ANOVA) followed by post-test comparisons where appropriate using Tukey's Multiple Comparison Test, Data are represented as the mean and standard error of the mean (SEM).

SMILES | solubility in water [1] | nesting (tests of daily living) [2] | fear conditioning (learning and memory) [3] | sociability (social anxiety) [4] | test of force (strength) [5] | open field (hyperactivity) [6] | all the behavioral tests (dose response) ([7]; 5 mg/kg) | all the behavioral tests (dose response) ([7]; 10 mg/kg) | self-grooming (stereotypy) [8]
CN(C)CCC=C1c2ccccc2CCc2ccccc21 [amitriptyline HCL, 3-(10,11-dihydro-5H-dibenzo [ad]cycloheptene-5-ylidene)-N,N-dimethyl-1-propanamine hydrochloride] | freely soluble | – | – | – | – | – | – | – | –
CN(C)CCC=C1c2ccccc2CCc2ccccc21 [amitriptyline] | – | significantly improved; also recorded: rescuing | significantly improved; also recorded: rescuing | significantly improved; also recorded: rescuing | significantly improved; also recorded: rescuing | significantly improved; also recorded: rescuing | rescued | rescued | significantly improved; also recorded: rescuing
